In test [1] the test system is Epidermal growth factor receptor (Homo sapiens), P00533 [L861Q]. Briefly: Inhibition of human recombinant N-terminal GST-tagged EGFR (696 residue-end) L861Q mutant expressed in baculovirus infected Sf21 cells using angiotensin-2 as substrate after 10 mins in presence of [gamma-33P]ATP by scintillation counting method.
Test [2] concerns the target Mast/stem cell growth factor receptor Kit (Homo sapiens, UniProt P10721). Briefly: Inhibition of human recombinant GST-His6-tagged Kit C-terminal fragment (544 to 976 residues) using GGMEDIYFEFMGGKKK as substrate after 10 mins in presence of [gamma-33P]ATP by scintillation counting method.
The test system of test [3] is Tyrosine-protein kinase ABL1 (Homo sapiens), P00519 [T315I]. The test is described as follows: Inhibition of Abl T315I mutant (unknown origin).
Another test has as its system U-87 MG. Briefly: Cytotoxicity against human U87MG cells assessed as decrease in cell viability after 72 hrs by coulter counter analysis. The test is classed as functional, cell-based, U-87MG ATCC.
Test [4] concerns the target Tyrosine-protein kinase Fyn (Homo sapiens, UniProt P06241). The test is described as follows: Inhibition of human recombinant full length N-terminal His6-tagged Fyn expressed in baculovirus infected Sf21 cells using KVEKIGEGTYGVVYK as substrate after 10 mins in presence of [gamma-33P]ATP by scintillation counting method.
The target in test [5] is Tyrosine-protein kinase ABL1 (Homo sapiens, UniProt P00519). The test is described as follows: Inhibition of Abl (unknown origin).
In test [6] the target is T1, Receptor-type tyrosine-protein kinase FLT3 (Homo sapiens, UniProt P36888).
T1 sequence (P36888 whole entry): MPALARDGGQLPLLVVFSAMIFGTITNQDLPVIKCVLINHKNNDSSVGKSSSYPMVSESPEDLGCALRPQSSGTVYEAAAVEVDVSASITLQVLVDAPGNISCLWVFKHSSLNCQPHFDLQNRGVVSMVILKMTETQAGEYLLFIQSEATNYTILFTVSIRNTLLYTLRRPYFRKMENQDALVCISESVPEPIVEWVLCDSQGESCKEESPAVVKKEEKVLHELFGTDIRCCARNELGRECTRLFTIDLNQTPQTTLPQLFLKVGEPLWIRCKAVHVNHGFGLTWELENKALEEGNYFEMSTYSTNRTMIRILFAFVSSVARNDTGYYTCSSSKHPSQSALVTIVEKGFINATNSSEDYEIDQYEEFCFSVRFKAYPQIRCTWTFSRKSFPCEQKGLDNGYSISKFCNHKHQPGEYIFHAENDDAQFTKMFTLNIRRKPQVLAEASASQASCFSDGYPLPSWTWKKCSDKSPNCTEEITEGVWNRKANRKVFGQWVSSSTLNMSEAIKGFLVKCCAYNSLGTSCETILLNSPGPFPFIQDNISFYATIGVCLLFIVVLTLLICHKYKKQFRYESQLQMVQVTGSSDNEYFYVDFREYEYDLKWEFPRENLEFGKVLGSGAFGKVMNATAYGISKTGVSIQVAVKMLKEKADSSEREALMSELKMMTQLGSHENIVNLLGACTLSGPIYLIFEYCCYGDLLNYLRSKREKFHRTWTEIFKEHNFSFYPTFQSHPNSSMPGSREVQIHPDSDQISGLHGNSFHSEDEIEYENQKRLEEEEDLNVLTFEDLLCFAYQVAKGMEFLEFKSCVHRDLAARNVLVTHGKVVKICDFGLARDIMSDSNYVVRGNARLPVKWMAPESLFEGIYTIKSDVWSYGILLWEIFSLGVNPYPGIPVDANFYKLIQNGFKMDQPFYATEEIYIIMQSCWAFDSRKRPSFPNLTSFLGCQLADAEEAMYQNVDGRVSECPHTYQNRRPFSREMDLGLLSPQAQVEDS
Briefly: Inhibition of Flt3 (unknown origin) using KVEKIGEGTYGVVYK as substrate after 10 mins in presence of [gamma-33P]ATP by scintillation counting method.

The target in test [7] is Proto-oncogene tyrosine-protein kinase Src (Homo sapiens, UniProt P12931). The test is described as follows: Inhibition of human recombinant full length N-terminal His6-tagged Src expressed in Sf21 cells using KVEKIGEGTYGVVYK as substrate after 10 mins in presence of [gamma-33P]ATP by scintillation counting method.
Chain of Proto-oncogene tyrosine-protein kinase Src (P12931 2-536 limits assumed): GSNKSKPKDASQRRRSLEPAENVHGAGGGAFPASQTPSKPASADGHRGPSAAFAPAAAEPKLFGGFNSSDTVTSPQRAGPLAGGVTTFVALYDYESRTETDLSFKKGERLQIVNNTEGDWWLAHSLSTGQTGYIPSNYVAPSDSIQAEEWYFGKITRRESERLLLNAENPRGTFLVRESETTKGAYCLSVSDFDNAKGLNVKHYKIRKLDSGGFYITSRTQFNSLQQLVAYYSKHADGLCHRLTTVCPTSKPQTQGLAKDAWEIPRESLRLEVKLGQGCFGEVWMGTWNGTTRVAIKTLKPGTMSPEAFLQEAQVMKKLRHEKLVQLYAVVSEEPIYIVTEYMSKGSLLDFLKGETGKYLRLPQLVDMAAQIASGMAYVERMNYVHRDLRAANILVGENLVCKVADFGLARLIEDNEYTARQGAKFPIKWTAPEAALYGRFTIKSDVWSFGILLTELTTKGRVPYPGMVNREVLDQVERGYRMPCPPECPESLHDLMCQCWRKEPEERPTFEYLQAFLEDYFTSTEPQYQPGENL

The source made the active and inactive calls. The rule behind the calls is not given here.

Chain of Mast/stem cell growth factor receptor Kit (P10721 whole entry, the tested form may be a part): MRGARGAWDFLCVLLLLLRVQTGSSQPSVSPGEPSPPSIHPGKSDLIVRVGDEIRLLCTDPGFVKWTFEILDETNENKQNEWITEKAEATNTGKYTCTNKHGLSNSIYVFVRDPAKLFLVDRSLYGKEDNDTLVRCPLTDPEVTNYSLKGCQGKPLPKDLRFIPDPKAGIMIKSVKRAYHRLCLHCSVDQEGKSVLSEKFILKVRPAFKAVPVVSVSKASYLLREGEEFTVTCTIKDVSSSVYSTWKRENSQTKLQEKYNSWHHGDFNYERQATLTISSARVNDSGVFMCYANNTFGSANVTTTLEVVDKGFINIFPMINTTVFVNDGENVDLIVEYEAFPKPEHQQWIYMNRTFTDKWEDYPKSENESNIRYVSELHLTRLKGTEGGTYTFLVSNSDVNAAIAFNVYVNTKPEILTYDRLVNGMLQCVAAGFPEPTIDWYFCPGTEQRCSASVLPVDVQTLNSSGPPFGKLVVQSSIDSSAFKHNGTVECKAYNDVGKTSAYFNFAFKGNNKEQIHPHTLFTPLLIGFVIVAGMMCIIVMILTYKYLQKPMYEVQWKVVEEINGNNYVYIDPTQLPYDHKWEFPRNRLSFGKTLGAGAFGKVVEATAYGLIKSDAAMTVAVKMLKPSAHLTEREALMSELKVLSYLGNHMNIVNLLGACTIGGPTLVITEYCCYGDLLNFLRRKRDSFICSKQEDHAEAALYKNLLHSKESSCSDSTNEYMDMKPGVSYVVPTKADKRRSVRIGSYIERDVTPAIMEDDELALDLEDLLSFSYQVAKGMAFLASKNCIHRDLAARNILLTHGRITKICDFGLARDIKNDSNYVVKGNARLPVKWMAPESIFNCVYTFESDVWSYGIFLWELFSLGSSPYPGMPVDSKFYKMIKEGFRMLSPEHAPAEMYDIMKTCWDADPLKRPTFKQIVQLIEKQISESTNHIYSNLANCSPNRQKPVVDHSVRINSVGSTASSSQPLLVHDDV
Chain of Epidermal growth factor receptor (Homo sapiens), P00533 [L861Q] (P00533 whole entry L861Q, the tested form may be a part): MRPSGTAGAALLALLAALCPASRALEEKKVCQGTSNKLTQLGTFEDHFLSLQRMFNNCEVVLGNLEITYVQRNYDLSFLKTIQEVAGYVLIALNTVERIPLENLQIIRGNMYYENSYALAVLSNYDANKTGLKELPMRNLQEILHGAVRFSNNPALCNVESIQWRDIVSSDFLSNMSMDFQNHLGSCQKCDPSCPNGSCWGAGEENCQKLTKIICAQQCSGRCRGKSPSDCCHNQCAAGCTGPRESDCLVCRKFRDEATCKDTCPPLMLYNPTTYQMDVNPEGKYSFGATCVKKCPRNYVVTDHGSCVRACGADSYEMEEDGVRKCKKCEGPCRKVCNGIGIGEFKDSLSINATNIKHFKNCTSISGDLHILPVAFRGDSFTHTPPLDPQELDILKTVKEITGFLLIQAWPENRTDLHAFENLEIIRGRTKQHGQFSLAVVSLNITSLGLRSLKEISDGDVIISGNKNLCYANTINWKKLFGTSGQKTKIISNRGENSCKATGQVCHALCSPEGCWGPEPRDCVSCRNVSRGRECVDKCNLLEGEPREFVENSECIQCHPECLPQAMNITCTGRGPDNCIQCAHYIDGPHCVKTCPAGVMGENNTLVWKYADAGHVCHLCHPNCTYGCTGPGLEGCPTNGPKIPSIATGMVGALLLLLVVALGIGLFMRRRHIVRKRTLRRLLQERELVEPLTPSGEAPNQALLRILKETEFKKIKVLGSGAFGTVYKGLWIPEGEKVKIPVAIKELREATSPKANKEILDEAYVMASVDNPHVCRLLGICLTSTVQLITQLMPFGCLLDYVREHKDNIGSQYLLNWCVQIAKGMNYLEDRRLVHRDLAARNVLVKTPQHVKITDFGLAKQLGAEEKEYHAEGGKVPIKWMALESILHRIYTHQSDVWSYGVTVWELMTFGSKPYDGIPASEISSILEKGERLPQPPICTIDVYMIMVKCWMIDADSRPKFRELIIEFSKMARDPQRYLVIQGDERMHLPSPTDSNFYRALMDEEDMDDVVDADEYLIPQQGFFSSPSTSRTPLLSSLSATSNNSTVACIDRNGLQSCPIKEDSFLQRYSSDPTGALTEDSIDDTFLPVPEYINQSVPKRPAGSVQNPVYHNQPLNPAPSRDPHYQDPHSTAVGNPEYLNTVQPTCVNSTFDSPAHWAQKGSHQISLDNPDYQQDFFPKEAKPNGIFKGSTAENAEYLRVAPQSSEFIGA
Chain of Tyrosine-protein kinase Fyn (P06241 whole entry): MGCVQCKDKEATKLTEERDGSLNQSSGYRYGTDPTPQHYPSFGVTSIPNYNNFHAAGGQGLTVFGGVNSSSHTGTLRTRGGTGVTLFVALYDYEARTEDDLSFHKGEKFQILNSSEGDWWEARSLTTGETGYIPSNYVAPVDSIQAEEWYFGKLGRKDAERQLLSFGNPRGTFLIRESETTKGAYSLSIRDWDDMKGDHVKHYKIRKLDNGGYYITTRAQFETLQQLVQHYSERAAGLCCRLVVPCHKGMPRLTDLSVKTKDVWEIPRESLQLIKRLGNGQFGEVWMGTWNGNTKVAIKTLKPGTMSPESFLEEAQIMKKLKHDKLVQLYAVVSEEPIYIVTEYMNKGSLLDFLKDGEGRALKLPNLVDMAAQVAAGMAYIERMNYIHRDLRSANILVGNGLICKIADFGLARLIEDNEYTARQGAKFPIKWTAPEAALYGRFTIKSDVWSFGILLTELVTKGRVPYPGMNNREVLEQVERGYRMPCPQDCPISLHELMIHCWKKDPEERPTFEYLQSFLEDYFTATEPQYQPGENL

In general, IC50 refers to the point on the concentration scale where inhibition reaches its midpoint. As a reminder, the Ki is a measure of affinity in units of concentration, obtained from inhibition or displacement. As for `CSc1nc(Nc2ccccc2)c2ccn(CC(Cl)c3ccccc3)c2n1` (stereo not given), the inhibition result in test [1] and in test [3] was “inactive” in each case. In addition, the IC50 entry in test [2] was “Not Active”; in the test with U-87 MG, 27.4 µM; in test [4] (read-out: IC50) it was 62 µM; in test [5] it was “Not Active”; in test [6] (read-out: IC50) it was 72 µM. In addition, in test [7], the inhibition constant (Ki) amounted to 1.5 µM.
As to `CSc1nc(Nc2cccc(Cl)c2)c2ccn(CC(Cl)c3ccccc3)c2n1` (stereo not given), the inhibition result in test [1] and in test [3] was “inactive” each time. Further, the concentration for half-maximal inhibition (IC50) entry in test [2] was “Not Active”; with U-87 MG it was 143 µM; in test [4] (read-out: IC50), 58.2 µM; in test [5], “Not Active”; in test [6] (read-out: IC50), 55 µM. Further, the inhibition constant (Ki) in test [7] is 0.7 µM.
For `CSc1nc(NCc2ccccc2)c2ccn(CC(Cl)c3ccccc3)c2n1` (stereo not given), the inhibition result in test [1] and in test [3] was “inactive” each time. Moreover, the IC50 entry in test [2] was “Not Active”; in the test on U-87 MG, 50.7 µM; in test [4] (read-out: IC50), 88.6 µM; in test [5] it was “Not Active”; in test [6] (read-out: IC50), 68 µM. Besides, in test [7], the Ki worked out at 6 µM.
On to `CCCCNc1nc(SC)nc2c1ccn2Cc1ccc(F)cc1`, for which the inhibition result in test [1] and in test [3] was “inactive” in each case. Besides, the IC50 result was “Not Active” in test [2]; 20.7 µM in the test with U-87 MG; “Not Active” in test [4]; “Not Active” in test [5]; “Not Active” in test [6]. Also, in test [7], the inhibition constant Ki is 3 µM.
Turning to `CSc1nc(NCCc2ccccc2)c2ccn(Cc3ccc(F)cc3)c2n1`, the inhibition entry in test [1] and in test [3] was “inactive” in each case. In addition, the half-inhibitory concentration (IC50) entry in test [2] is “Not Active”; in the test with U-87 MG, 13.3 µM; in test [4] (read-out: IC50), 30.8 µM; in test [5], “Not Active”; in test [6], “Not Active”. The Ki in test [7] came to 0.8 µM.
`CSc1nc(N2CCCC2)c2ccn(Cc3ccc(F)cc3)c2n1`: the inhibition result in test [1] and in test [3] was “inactive” in each case. For the same molecule, the IC50 entry in test [2] was “Not Active”; with U-87 MG it was 51.8 µM; in test [4] (read-out: IC50), 76 µM; in test [5], “Not Active”; in test [6] (read-out: IC50), 64 µM. Besides, the Ki in test [7] was determined as 2 µM.
For `CSc1nc(N2CCCCC2)c2ccn(Cc3ccc(F)cc3)c2n1`, the inhibition entry in test [1] and in test [3] was “inactive” throughout. Moreover, the IC50 result is “Not Active” in test [2]; 50.7 µM with U-87 MG; 57.1 µM in test [4] (read-out: IC50); “Not Active” in test [5]; 61 µM in test [6] (read-out: IC50). Besides, the inhibitory constant (Ki) in test [7] was 2.5 µM.
For the molecule `CSc1nc(NCc2ccccc2)c2ccn(Cc3ccc(F)cc3)c2n1`, the inhibition result in test [1] and in test [3] was “inactive” throughout. For the same molecule, the half-inhibitory concentration (IC50) result was “Not Active” in test [2]; 7.1 µM with U-87 MG; 43.2 µM in test [4] (read-out: IC50); 70 µM in test [5] (read-out: IC50); 60 µM in test [6] (read-out: IC50). For the same molecule, in test [7], the inhibition constant Ki amounted to 0.5 µM.
Regarding `CSc1nc(NCCc2ccc(Cl)cc2)c2ccn(Cc3ccc(F)cc3)c2n1`, the inhibition entry in test [1] and in test [3] was “inactive” throughout. Also, the IC50 result is “Not Active” in test [2]; 46.1 µM in the test with U-87 MG; 70.4 µM in test [4] (read-out: IC50); “Not Active” in test [5]; 76 µM in test [6] (read-out: IC50). The inhibition constant Ki in test [7] stood at 5 µM.
Regarding `CSc1nc(N2CCOCC2)c2ccn(Cc3ccc(F)cc3)c2n1`, the inhibition result in test [1] and in test [3] was “inactive” each time. Besides, the half-inhibitory concentration (IC50) result is “Not Active” in test [2]; 20.3 µM in the test with U-87 MG; “Not Active” in test [4]; “Not Active” in test [5]; 61 µM in test [6] (read-out: IC50). The Ki in test [7] was 4.7 µM.

The values are drawn from ChEMBL document CHEMBL3992531, “Identification of new pyrrolo[2,3-d]pyrimidines as Src tyrosine kinase inhibitors in vitro active against Glioblastoma” (Eur J Med Chem, 2017).
